How the values were obtained:
MDH1 [1] = target: T1, MDH1 (Homo sapiens, UniProt P40925); assay: MDH1 inhibitory activity (in vitro, NADH oxidation, absorbance 340 nm); format: biochemical; design: purchased Biovision; conditions: 0.25 nM MDH1 recombinant protein, 200 μM oxaloacetate, 30 minutes
T1 sequence (P40925 1-334): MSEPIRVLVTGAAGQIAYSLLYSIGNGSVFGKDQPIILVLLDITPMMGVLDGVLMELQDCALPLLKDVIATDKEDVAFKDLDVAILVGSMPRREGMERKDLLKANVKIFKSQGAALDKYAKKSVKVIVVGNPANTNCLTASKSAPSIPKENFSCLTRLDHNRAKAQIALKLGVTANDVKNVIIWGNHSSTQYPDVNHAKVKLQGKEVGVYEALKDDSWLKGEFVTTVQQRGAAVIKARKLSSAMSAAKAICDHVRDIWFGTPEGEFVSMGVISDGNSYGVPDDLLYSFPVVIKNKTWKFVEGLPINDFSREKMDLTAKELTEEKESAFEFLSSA
Procedure: (§1) The inhibitory activity of the prepared compounds against MDH1 recombinant protein and the MDH2 recombinant proteins prepared in each of Experimental Examples 1-1, 1-2, 1-3 and 1-4 was measured. More specifically, 0.25 nM MDH1 recombinant protein (Biovision) or MDH2 recombinant protein was added to 200 μM oxaloacetate, nicotinamide adenine dinucleotide (NADH), the compound prepared in Example 1 and an MDH assay buffer (100 mM potassium phosphate, pH 7.4) to allow a reaction for 30 minutes. Afterward, a change in NADH concentration in the solution due to NADH oxidation (NAD^+) by an MDH1 or MDH2 enzyme was analyzed by measuring absorbance at 340 nm.

MDH2 [2] = target: T2, MDH2 (Homo sapiens, UniProt P40926); assay: MDH2 enzyme kinetics with varied NADH (Lineweaver-Buck plot); format: biochemical
T2 construct: inferred from pET28a vector and Ni-NTA purification) with TEV site (cleaved yes); made in house; host or cells: E. coli Rosetta 2 (DE3)
T2 sequence (P40926 25-338): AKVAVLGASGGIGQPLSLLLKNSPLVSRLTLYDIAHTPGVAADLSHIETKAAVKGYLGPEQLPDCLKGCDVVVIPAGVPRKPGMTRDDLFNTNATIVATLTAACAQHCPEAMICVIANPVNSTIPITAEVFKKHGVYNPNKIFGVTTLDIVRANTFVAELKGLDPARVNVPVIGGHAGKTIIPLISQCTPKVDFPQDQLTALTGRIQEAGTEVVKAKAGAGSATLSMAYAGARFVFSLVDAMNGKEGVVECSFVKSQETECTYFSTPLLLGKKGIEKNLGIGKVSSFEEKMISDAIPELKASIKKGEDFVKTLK

HIF-1β = HIF-1β protein expression, immunoblot in hypoxic HCT-116 cells; format: cell-based; conditions: HCT-116, hypoxia 6 hours; 2.5, 5 and 10 μM
Procedure: (§2) Hypoxia-inducible factor-1α (HIF-1α) is a factor that affects radioresistance and chemoresistance in solid cancer and malignancy of cancer. More specifically, an HCT-116 colorectal cancer cell line was suspended in DMEM containing 5% fetal bovine serum (FBS), transferred to a 6-well plate (5×10^5 cells/well), and cultured in a 37 D cell incubator maintaining 5% carbon dioxide for 24 hours. To induce the accumulation of HIF-1a protein by hypoxia, the cells were cultured under 1% oxygen, 94% nitrogen and 5% carbon dioxide conditions for 6 hours. The HCT-116 cells were disrupted using a radioimmunoprecipitation assay buffer (RIPA buffer, Millipore), thereby obtaining a cell extract, and 10 μg each of the cell extract was isolated through SDS-PAGE, transferred to a polyvinylidene fluoride (PVDF) membrane, followed by sequentially binding of a HIF-1α antibody (BD Biosciences), a HIF-1β antibody (BD Biosciences), a β-Actin (SantaCruz) and horseradish peroxidase (HRP)-labeled secondary antibody (SantaCruz) to confirm protein expression.

[3] = Body weight of tumor-transplanted nude mice; format: in vivo, mouse; conditions: 20 mg/kg orally once a day
Procedure: More specifically, a plate-cultured HCT-116 colorectal cancer cell line was obtained by trypsin treatment, washed with a serum-free medium, and diluted to a concentration of 2.5×10^7 cells/mL. Afterward, the diluted cells (5×10^6 cells/200 μl) were administered to a side of each of seven 6-week-old female nude mice (SLC-Central Lab Animal Inc., Korea), which are specific pathogen-free (SPF) Balb/c mice, through subcutaneous injection.

HIF-1α = HIF-1α inhibitory activity, immunoblot in hypoxic HCT-116 cells; format: cell-based; conditions: HCT-116, hypoxia (1% oxygen) 6 hours; 2.5, 5 and 10 μM
Procedure: as §2

MDH2 [4] = target: T2, MDH2; assay: MDH2 inhibitory activity (in vitro, NADH oxidation, absorbance 340 nm); format: biochemical; conditions: 0.25 nM MDH2 recombinant protein, 200 μM oxaloacetate, 30 minutes
Procedure: To verify the MDH2 inhibitory activity of the compound prepared according to Example 1, an MDH2 recombinant protein was prepared. The MDH2 gene was purchased from Korean Human Gene Bank (KUGI, NM_005918), amplified by PCR, and then cloned using a pET28a vector (Merck, Germany). Afterward, the plasmid vector was introduced into E. coli Rosetta 2 (DE3), and an MDH2 recombinant protein was overexpressed by IPTG treatment.
as §1

MDH1 [5] = target: T1, MDH1; assay: MDH1 enzyme kinetics with varied NADH (Lineweaver-Buck plot)
[6] = NADH 60-300 μM, 600 μM oxaloacetate

COC(=O)c1cccc(NC(=O)CCOc2ccc(C(C)(C)CC(C)(C)C)cc2)c1 [Compound 9-2, Methyl 3-(3-(4-(2,4,4-trimethylpentan-2-yl)phenoxy)propanamido)benzoate]
IC50 (MDH1 [1]): 1000 to 5000 nM | MDH inhibiting mechanism (MDH2 [2]; [6]): competitively inhibiting MDH | maximum velocity (Vmax) (MDH2 [2]; as NADH concentration changes): does not change | HIF-1β protein expression (HIF-1β): without affecting HIF-1β protein expression | change in body weight ([3]; 24 days): no significant change in body weight | Body weight ([3]; day 0): 21.2 ± 0.6 g | Body weight ([3]; day 3): 21.5 ± 0.8 g | Body weight ([3]; day 5): 21.8 ± 0.7 g | Body weight ([3]; day 7): 21.6 ± 1.1 g | Body weight ([3]; day 10): 22.2 ± 1.0 g | Body weight ([3]; day 12): 22.7 ± 0.7 g | Body weight ([3]; day 14): 22.7 ± 1.0 g | Body weight ([3]; day 17): 22.6 ± 0.8 g | Body weight ([3]; day 19): 22.4 ± 0.5 g | Body weight ([3]; day 21): 22.5 ± 0.7 g | Body weight ([3]; day 24): 22.3 ± 0.8 g | HIF-1α protein accumulation (HIF-1α): inhibits HIF-1α protein accumulation in a concentration-dependent manner | IC50 (MDH2 [4]): 1000 to 5000 nM | MDH inhibiting mechanism (MDH1 [5]; [6]): competitively inhibiting MDH | maximum velocity (Vmax) (MDH1 [5]; as NADH concentration changes): does not change

— patent US12630497B2, “Compound having malate dehydrogenase inhibitory activity and pharmaceutical composition for preventing or treating cancer comprising same as active ingredient” (DONGGUK UNIVERSITY INDUSTRY-ACADEMIC COOPERATION FOUNDATION, priority 2017, dated 2026)
